Like-named read-outs stand apart in the source and are kept apart here.
Experiments:
HE = test: clinical studies of baricitinib for treating HE (Example 2, with Davos Biosciences GmbH); type: in vivo, human; conditions: daily dosage of 4 mg
patients with HE = conditions: cited from earlier work; for HE severity after treatment / HECSI score after treatment: after 16 weeks; for HE severity after treatment: 'severe' at start

CCS(=O)(=O)N1CC(CC#N)(n2cc(-c3ncnc4[nH]ccc34)cn2)C1 [baricitinib, {1-(ethylsulfonyl)-3-[4-(7H-pyrrolo[2,3-d]pyrimidin-4-yl)-1H-pyrazol-1-yl]azetidin-3-yl}acetonitrile]
efficacy in HE (photographic images and additional clinical data) (HE): effective
treatment outcome of two patients with HE (patients with HE; 4 mg tablet once per day): successfully treated
HE severity after treatment (patients with HE; case 1: severe hyperkeratotic HE, 4 mg once per day): almost clear
HECSI score after treatment (patients with HE; case 1, 4 mg once per day, HECSI 55 (severe) at start): 4
tolerability / side effects (patients with HE; case 1, 4 mg once per day): no side effects occurred
quality of life (QOLHEQ) after treatment (patients with HE; case 1, improved from "strongly impaired"): not at all impaired
HE severity after treatment (patients with HE; case 2: severe AD with severe atopic HE, 4 mg per day tapered to 2 mg per day at 12 weeks): almost clear
HECSI score after treatment (patients with HE; case 2, 4 mg per day tapered to 2 mg at 12 weeks, HECSI 47 (severe) at start): 8
adverse event leading to discontinuation (patients with HE; case 2, at 16 weeks): bacterial corneal ulcer
quality of life (QOLHEQ) after treatment (patients with HE; case 2, improved from "moderately impaired"): not at all impaired
